Drawing on ChEMBL document CHEMBL2016536, “New triazole derivatives as antifungal agents: synthesis via click reaction, in vitro evaluation and molecular docking studies” (2012), this text covers MIC80 and Ratio for twelve compounds.

What all share (type): functional
Assay [1] has as its system Candida albicans. Briefly: Antifungal activity against Candida albicans SC5314 after 24 hrs by microbroth dilution method. The settings on record: SC5314, 24 h.
Assay [2] concerns Kluyveromyces marxianus. Briefly: Antifungal activity against Candida kefyr by microbroth dilution method.
Another assay has as its system Aspergillus fumigatus. As to the kind of experiment: Antifungal activity against Aspergillus fumigatus by microbroth dilution method.
The next assay relates to Cryptococcus neoformans. As to the kind of experiment: Antifungal activity against Cryptococcus neoformans after 72 hrs by microbroth dilution method.
The next assay has as its system Candida parapsilosis. Briefly: Antifungal activity against Candida parapsilosis by microbroth dilution method. The settings on record: Lodderomyces parapsilosis.
Assay [3] relates to Candida tropicalis. As to the kind of experiment: Ratio of MIC80 for fluconazole to compound for Candida tropicalis by microbroth dilution method.
For assay [4], the system named is Kluyveromyces marxianus. As to the kind of experiment: Ratio of MIC80 for fluconazole to compound for Candida kefyr by microbroth dilution method.
The subject of assay [5] is Candida albicans. Briefly: Antifungal activity against Candida albicans Y0109 after 24 hrs by microbroth dilution method. The settings on record: Y0109, 24 h.
In assay [6] the test system is Candida tropicalis. Briefly: Antifungal activity against Candida tropicalis by microbroth dilution method.
The test system of the next assay is Trichophyton rubrum. Briefly: Antifungal activity against Trichophyton rubrum by microbroth dilution method.
Assay [7] relates to Candida albicans. Briefly: Ratio of MIC80 for fluconazole to compound for Candida albicans SC5314 after 24 hrs by microbroth dilution method.

Converted amounts (≈) assume the structure as drawn. Some results are limits rather than exact numbers.

Regarding `OC(Cc1cn(Cc2ccc(F)c(F)c2)nn1)(Cn1cncn1)c1ccc(F)cc1F` (stereo not given), the MIC80 against Candida albicans [1] was 0.25 µg/mL (≈ 0.578 µM); with Kluyveromyces marxianus [2], 0.25 µg/mL (≈ 0.578 µM); with Aspergillus fumigatus, 16 µg/mL (≈ 37 µM); against Cryptococcus neoformans it was 1 µg/mL (≈ 2.31 µM); with Candida parapsilosis, 0.125 µg/mL (≈ 0.289 µM); in the assay on Candida albicans [5], 0.125 µg/mL (≈ 0.289 µM). Moreover, the MIC80 against Candida tropicalis [6] worked out at 0.125 µg/mL (≈ 0.289 µM); against Trichophyton rubrum, 0.25 µg/mL (≈ 0.578 µM). Further, the values for the Ratio with Candida tropicalis [3] and in the assay on Kluyveromyces marxianus [4] were 16 and 64, respectively.
With `CCC(C)n1ncn(-c2ccc(N3CCN(c4ccc(OCC5COC(Cn6cncn6)(c6ccc(Cl)cc6Cl)O5)cc4)CC3)cc2)c1=O` (stereo not given) [ITRACONAZOLE], the MIC80 in the assay on Candida albicans [1] amounted to 0.0625 µg/mL (≈ 0.0886 µM); against Kluyveromyces marxianus [2] it was 0.125 µg/mL (≈ 0.177 µM); against Aspergillus fumigatus, 0.0625 µg/mL (≈ 0.0886 µM); against Cryptococcus neoformans, 0.0625 µg/mL (≈ 0.0886 µM); against Candida parapsilosis it was 0.0625 µg/mL (≈ 0.0886 µM); with Candida albicans [5], 0.0625 µg/mL (≈ 0.0886 µM). In addition, the MIC80 against Candida tropicalis [6] and with Trichophyton rubrum was 0.0625 µg/mL (≈ 0.0886 µM) throughout.
On to `OC(Cc1cn(Cc2ccc(Cl)cc2)nn1)(Cn1cncn1)c1ccc(F)cc1F` (stereo not given), for which the MIC80 was less than 0.125 µg/mL in the assay with Candida albicans [1]; 0.0625 µg/mL (≈ 0.145 µM) against Kluyveromyces marxianus [2]; 4 µg/mL (≈ 9.28 µM) with Aspergillus fumigatus; 0.25 µg/mL (≈ 0.58 µM) against Cryptococcus neoformans; 0.125 µg/mL (≈ 0.29 µM) with Candida parapsilosis; 0.0625 µg/mL (≈ 0.145 µM) with Candida albicans [5]. For the same compound, the MIC80 was 0.5 µg/mL (≈ 1.16 µM) against Candida tropicalis [6] and 0.125 µg/mL (≈ 0.29 µM) in the assay with Trichophyton rubrum.
Consider `O=[N+]([O-])c1cccc(Cn2cc(CC(O)(Cn3cncn3)c3ccc(F)cc3F)nn2)c1` (stereo not given), for which the MIC80 in the assay with Candida albicans [1] is less than 0.125 µg/mL; in the assay on Kluyveromyces marxianus [2], 0.0625 µg/mL (≈ 0.142 µM); with Aspergillus fumigatus, 32 µg/mL (≈ 72.5 µM); against Cryptococcus neoformans it was 0.5 µg/mL (≈ 1.13 µM); in the assay on Candida parapsilosis, less than 0.25 µg/mL; in the assay with Candida albicans [5], 0.0625 µg/mL (≈ 0.142 µM). The MIC80 with Candida tropicalis [6] was determined as 0.125 µg/mL (≈ 0.283 µM); in the assay on Trichophyton rubrum, 0.25 µg/mL (≈ 0.566 µM).
Consider `N#Cc1cccc(Cn2cc(CC(O)(Cn3cncn3)c3ccc(F)cc3F)nn2)c1` (stereo not given), for which the MIC80 against Candida albicans [1] is 0.125 µg/mL (≈ 0.297 µM); against Kluyveromyces marxianus [2] it was less than 0.125 µg/mL; against Aspergillus fumigatus, 32 µg/mL (≈ 75.9 µM); in the assay on Cryptococcus neoformans, 1 µg/mL (≈ 2.37 µM); against Candida parapsilosis, 0.25 µg/mL (≈ 0.593 µM); in the assay with Candida albicans [5] it was 0.0625 µg/mL (≈ 0.148 µM). In addition, the values for the MIC80 in the assay on Candida tropicalis [6] and against Trichophyton rubrum were 0.125 µg/mL (≈ 0.297 µM) and 0.25 µg/mL (≈ 0.593 µM), respectively.
In the case of `Cc1ccccc1Cn1cc(CC(O)(Cn2cncn2)c2ccc(F)cc2F)nn1` (stereo not given), the MIC80 with Candida albicans [1] was found to be 0.0625 µg/mL (≈ 0.152 µM); against Kluyveromyces marxianus [2], 0.0039 µg/mL (≈ 0.0095 µM); against Aspergillus fumigatus, 2 µg/mL (≈ 4.87 µM); in the assay with Cryptococcus neoformans, 0.125 µg/mL (≈ 0.305 µM); in the assay on Candida parapsilosis it was 0.0625 µg/mL (≈ 0.152 µM); against Candida albicans [5] it was 0.0156 µg/mL (≈ 0.038 µM). The values for the MIC80 with Candida tropicalis [6] and with Trichophyton rubrum were 0.125 µg/mL (≈ 0.305 µM) and 0.0625 µg/mL (≈ 0.152 µM), respectively.
Take `CC(=O)N1CCN(c2ccc(OCC3COC(Cn4ccnc4)(c4ccc(Cl)cc4Cl)O3)cc2)CC1` (stereo not given) [KETOCONAZOLE]: the MIC80 is 0.0625 µg/mL (≈ 0.118 µM) against Candida albicans [1]; 0.0625 µg/mL (≈ 0.118 µM) in the assay with Kluyveromyces marxianus [2]; 0.0156 µg/mL (≈ 0.0294 µM) with Aspergillus fumigatus; 0.0156 µg/mL (≈ 0.0294 µM) against Cryptococcus neoformans; 0.0039 µg/mL (≈ 0.00734 µM) against Candida parapsilosis; 0.0625 µg/mL (≈ 0.118 µM) in the assay with Candida albicans [5]. Further, the MIC80 is 0.0039 µg/mL (≈ 0.00734 µM) in the assay on Candida tropicalis [6] and 0.0156 µg/mL (≈ 0.0294 µM) against Trichophyton rubrum.
For `O=[N+]([O-])c1ccccc1Cn1cc(CC(O)(Cn2cncn2)c2ccc(F)cc2F)nn1` (stereo not given), the MIC80 in the assay with Candida albicans [1] was less than 0.125 µg/mL; with Kluyveromyces marxianus [2], 0.0625 µg/mL (≈ 0.142 µM); in the assay on Aspergillus fumigatus it was 32 µg/mL (≈ 72.5 µM); with Cryptococcus neoformans it was 0.5 µg/mL (≈ 1.13 µM); against Candida parapsilosis, less than 0.25 µg/mL; in the assay with Candida albicans [5], 0.0625 µg/mL (≈ 0.142 µM). The MIC80 against Candida tropicalis [6] was determined as 0.125 µg/mL (≈ 0.283 µM); against Trichophyton rubrum, 0.25 µg/mL (≈ 0.566 µM).
With `N#Cc1ccccc1Cn1cc(CC(O)(Cn2cncn2)c2ccc(F)cc2F)nn1` (stereo not given), the MIC80 was 0.125 µg/mL (≈ 0.297 µM) in the assay with Candida albicans [1]; less than 0.125 µg/mL in the assay on Kluyveromyces marxianus [2]; 16 µg/mL (≈ 38 µM) in the assay with Aspergillus fumigatus; 0.5 µg/mL (≈ 1.19 µM) in the assay on Cryptococcus neoformans; 0.25 µg/mL (≈ 0.593 µM) in the assay with Candida parapsilosis; 0.0625 µg/mL (≈ 0.148 µM) with Candida albicans [5]. Also, the MIC80 with Candida tropicalis [6] came to 0.125 µg/mL (≈ 0.297 µM); against Trichophyton rubrum it was 0.25 µg/mL (≈ 0.593 µM).
`COc1ccc(Cn2cc(CC(O)(Cn3cncn3)c3ccc(F)cc3F)nn2)cc1OC` (stereo not given): the MIC80 against Candida albicans [1] was determined as 0.0625 µg/mL (≈ 0.137 µM); in the assay on Kluyveromyces marxianus [2] it was 0.0625 µg/mL (≈ 0.137 µM); in the assay on Aspergillus fumigatus, 2 µg/mL (≈ 4.38 µM); in the assay on Cryptococcus neoformans, 0.0625 µg/mL (≈ 0.137 µM); in the assay with Candida parapsilosis it was 0.0625 µg/mL (≈ 0.137 µM); against Candida albicans [5], 0.0156 µg/mL (≈ 0.0342 µM). Also, the figures for the MIC80 against Candida tropicalis [6] and against Trichophyton rubrum were 0.125 µg/mL (≈ 0.274 µM) and 0.0625 µg/mL (≈ 0.137 µM), respectively.
`Cc1cccc(Cn2cc(CC(O)(Cn3cncn3)c3ccc(F)cc3F)nn2)c1` (stereo not given): the MIC80 against Candida albicans [1] is 0.0625 µg/mL (≈ 0.152 µM); against Kluyveromyces marxianus [2], 0.0156 µg/mL (≈ 0.038 µM); against Aspergillus fumigatus, 4 µg/mL (≈ 9.75 µM); in the assay on Cryptococcus neoformans it was 0.125 µg/mL (≈ 0.305 µM); against Candida parapsilosis, 0.0625 µg/mL (≈ 0.152 µM); in the assay with Candida albicans [5] it was 0.0156 µg/mL (≈ 0.038 µM). Moreover, the MIC80 in the assay on Candida tropicalis [6] stood at 0.125 µg/mL (≈ 0.305 µM); against Trichophyton rubrum it was 0.0625 µg/mL (≈ 0.152 µM).
`Cc1ccc(Cn2cc(CC(O)(Cn3cncn3)c3ccc(F)cc3F)nn2)cc1` (stereo not given): the MIC80 in the assay on Candida albicans [1] was found to be 0.0156 µg/mL (≈ 0.038 µM); in the assay with Kluyveromyces marxianus [2] it was 0.0156 µg/mL (≈ 0.038 µM); with Aspergillus fumigatus, 2 µg/mL (≈ 4.87 µM); in the assay with Cryptococcus neoformans, 0.125 µg/mL (≈ 0.305 µM); against Candida parapsilosis it was 0.0625 µg/mL (≈ 0.152 µM); in the assay with Candida albicans [5], 0.0039 µg/mL (≈ 0.0095 µM). In addition, the MIC80 against Candida tropicalis [6] turned out to be 0.125 µg/mL (≈ 0.305 µM); in the assay with Trichophyton rubrum it was 0.0625 µg/mL (≈ 0.152 µM). The Ratio stood at 128 in the assay with Candida albicans [7] and 256 in the assay with Kluyveromyces marxianus [4].
